These results are taken from patent US20060234922A1, “Remedy for corneal failure” (priority 2002, published 2006).

Holding throughout (type): cell-based
Assay [1] deals with cultured rabbit trigeminal nerve cells. As to the kind of experiment: Effect of somatostatin receptor agonist on axon extension of cultured rabbit trigeminal nerve cells (neurofilament absorbance at 492 nm, fluorescence microscopy). Particulars: 48 hr culture; for absorbance indicating the neurofilament amount of the cells (492 nm): control group 0.798, n=3. From the text:
Effect of Somatostatin Receptor Agonist on Axon Extension of Cultured Rabbit Trigeminal Nerve Cell (In Vitro Test)
Japanese White Rabbits (2-3 days old) purchased from KITAYAMA LABES Co., Ltd. were used.
As a somatostatin receptor agonist, which is a test substance, t-butyl 6-amino-2-(3-(1H-indol-3-yl)-2-((4-(2-oxo-2,3-dihydrobenzoimidazol-1-yl)piperidine-1-carbonyl)amino)propionylamino)hexanoate, which is an SSTR2 specific agonist (hereinafter to be referred to as compound 1), and 1-(3-(N-(5-bromopyridin-2-yl)-N-(3,4-dichlorobenzyl)amino)propyl)-3-(3-(1H-imidazol-4-yl)propyl)thiourea (hereinafter to be referred to as compound 2), which is an SSTR4 specific agonist, were used. The compound 1 was a compound of Example 4 and synthesized according to the method of Example 2 of JP-A-2001-519812 (WO98/44922). The compound 2 was synthesized according Example 15 of JP-A-2001-525793 (WO97/43278).
Rabbit trigeminal nerve cells were isolated by reference to the report of Chan et al. (Kuan Y. Chan and Richard H. Haschke. Exp. Eye Res. 41: 687-699, 1985). To be specific, under ether anesthesia, cardiac perfusion with saline was performed and trigeminal ganglia was removed. Using nerve dispersion solution (SUMITOMO BAKELITE Co., Ltd.), trigeminal ganglia was dispersed to prepare trigeminal nerve cells. For cell culture, Neurobasal medium (GIBCO) added with B27 Supplement (GIBCO; final concentration 2% v/v) and L-Glutamine (GIBCO; final concentration 1 mM) was used under the culture conditions of 5% CO2, 95% air, 100% humidity, 37° C., 48 hr. […]
After the completion of 48 hr culture, the cells innoculated on a 96 well plate were fixed with 4% paraformaldehyde and the neurofilament of the cell was labeled with anti-neurofilament 200 antibody (Sigma) specifically recognizing a neurofilament constituting nerve cell body and neurite and HRP conjugated goat anti-mouse IgG antibody (Wako Pure Chemical Industries, Ltd.). […] After the completion of coloring, the absorbance at 492 nm was measured and the measured value was taken as the amount of the stained neurofilament and used as an index for neuritogenesis (Taniwaki T., et al. Dev. Brain Res. (1995) 88, 109-166). The cells plated on an 8 well culture slide were fixed with 4% paraformaldehyde, a sample fixed with an anti-neurofilament 200 antibody (Sigma) was stained, and fluorescence labeled with Alexa Fluor 568 conjugated secondary antibody (Molecular probes). The fluorescence labeled cells were observed under a fluorescence microscope and the cell images were imported into a computer.

Assay [2] shares this test system. As to the kind of experiment: Effect of Octreotide on axon extension of cultured rabbit trigeminal nerve cells (anti-neurofilament 200 immunostaining, image analysis). Particulars: Octreotide 10 μM final concentration, 24 hr culture. From the text:
Effect of Octreotide on Axon Extension of Cultured Rabbit Trigeminal Nerve Cells (In Vitro Test)
(§1) Japanese White Rabbits (2-3 days old) purchased from Fukusaki Rabbit Warren were used.
Octreotide (SMS 201-995, American Peptide Company, Inc.) was used.
The cell culture: Trigeminal nerve cells were isolated by reference to the report of Chan et al. (Kuan Y. Chan and Richard H. Haschke. Exp. Eye Res. 41: 687-699, 1985). To be specific, under ether anesthesia, after cardiac perfusion of rabbit with saline, the trigeminal ganglia was removed, and dispersed in nerve dispersion solution (SUMITOMO BAKELITE Co., Ltd.). The cells were counted and innoculated in an 8 well culture slide (BECTON DICKINSON) coated with polylysine. The cell number was about 3×10^3 cells per well, and the culture conditions were 5% CO2, 95% air, 37° C. […] Immunostaining: At 24 hr from culture, the cells were fixed with 4% paraformaldehyde at room temperature for 2 hr, and nerve cell, axon and dendrite were fluorescence stained with anti-neurofilament 200 antibody (NF, Anti-Neurofilament 200, Sigma) specifically recognizing a neurofilament constituting the nerve cell and neurite. The images of the stained cells were imported into a computer from the fluorescence microscope, and the effect of Octreotide on the neurite formation and axon extension was evaluated using an image analysis soft (MacSCOP, MITANI CO.). […]

The test system is the same in assay [3]. The assay is described as follows: Nerve axon extension promoting action in cultured rabbit trigeminal nerve cells (phase contrast microscopy). Particulars: NGF 1 μg/mL final concentration, 48 hr culture, compared to non-addition group. The procedure:
Nerve Axon Extension Promoting Action in Cultured Rabbit Trigeminal Nerve Cells (In Vitro Experiment)
as §1
As a test substance, somatostatin (manufactured by CALBIOCHEM, Lot B33795) and NGF (NGF-7S, manufactured by Sigma) were used. The test substance was dissolved in phosphate buffer (PBS) to 100 μM somatostatin, 20 μg/mL NGF-7S. The prepared reagents were preserved at −80° C. and dissolved before use.
The trigeminal nerve cell was isolated according to the report of Chan et al. (Kuan Y. Chan and Richard H. Haschke. Exp. Eye Res. 41: 687-699, 1985). To be specific, under ether anesthesia, after cardiac perfusion of rabbit with saline, the trigeminal ganglia was removed, trigeminal ganglia was dispersed using a nerve dispersion solution (SUMITOMO BAKELITE Co., Ltd.), and the cells were plated in a 24-well plate (SUMITOMO BAKELITE Co., Ltd.) coated with polylysine/laminin. The number of cells was about 3000 cells per well and the culture conditions were 5% CO2, 95% air at 37° C. […]
The effect on the formation of neurite and the axon extension from trigeminal nerve cell by somatostatin and NGF were morphologically evaluated by the observation using a phase contrast microscope.

`S=C(NCCCc1c[nH]cn1)NCCCN(Cc1ccc(Cl)c(Cl)c1)c1ccc(Br)cn1` [compound 2, 1-(3-(N-(5-bromopyridin-2-yl)-N-(3,4-dichlorobenzyl)amino)propyl)-3-(3-(1H-imidazol-4-yl)propyl)thiourea]: in assay [1] (final concentration 0.1 μM), the “neuritogenic cells compared with the control group (fluorescence microscopic images)” value was “increase in the neuritogenic cells” and the “absorbance indicating the neurofilament amount of the cells (492 nm)” value is on record as 0.850.

Turning to `CC(C)(C)OC(=O)C(CCCCN)NC(=O)C(Cc1c[nH]c2ccccc12)NC(=O)N1CCC(n2c(=O)[nH]c3ccccc32)CC1` (stereo not shown) [compound 1, t-butyl 6-amino-2-(3-(1H-indol-3-yl)-2-((4-(2-oxo-2,3-dihydrobenzoimidazol-1-yl)piperidine-1-carbonyl)amino)propionylamino)hexanoate], in assay [1] (final concentration 1 μM), the “neuritogenic cells compared with the control group (fluorescence microscopic images)” value is “increase in the neuritogenic cells” and the “absorbance indicating the neurofilament amount of the cells (492 nm)” value is listed as 0.876.

In the case of `C[C@@H](O)[C@@H]1NC(=O)[C@H](CCCCN)NC(=O)[C@@H](Cc2c[nH]c3ccccc23)NC(=O)[C@H](Cc2ccccc2)NC(=O)[C@@H](NC(=O)[C@H](N)Cc2ccccc2)CSSC[C@@H](C(=O)N[C@H](CO)[C@@H](C)O)NC1=O` [Octreotide], in assay [2], the “neuritogenic cells compared to the control cell group (fluorescence microscopic images)” value is “neuritogenic cells increased”. Further, in assay [2] (control group about 21%, n=3, p<0.05), the “proportion (%) of neuritogenic cell to the total cell number” value is recorded as “about 43%”.

B1: NGF: nerve growth factor (NGF-7S, manufactured by Sigma) (protein, UniProt P01139 122-241, looked up)
Beta-nerve growth factor: SSTHPVFHMGEFSVCDSVSVWVGDKTTATDIKGKEVTVLAEVNINNSVFRQYFFETKCRASNPVESGCRGIDSKHWNSYCTTTHTFVKALTTDEKQAAWRFIRIDTACVCVLSRKATRRG
modifications: 7S complex
On to B1, for which, in assay [3], the “formation of neurite and axon extension from trigeminal nerve cell, morphological evaluation” value is recorded as “clear nerve cell axon extension-promoting action was observed”.
